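In this assay, cells in 96-well plates receive the compound at five concentrations for 48 hours. Endpoints are linearly interpolated between the surrounding concentrations. GI50 = concentration required for 50% inhibition of growth.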 Active and inactive are the calls of the source. Cut-off read from the data, not from the text of the source: active = GI50 up to about 1.1 µM and inactive = higher. Square brackets hold non-standard residues; d marks the D form. Peptide text beside a SMILES is read from it. * marks the point of attachment. ξ: configuration not given here. NMeV = CN[C@H](C(=O)O)C(C)C; X28 = COc1ccc(CN*)c(OC)c1; Octanoyl = CCCCCCCC(=O)*; dNMeA = CN[C@H](C)C(=O)O; ξF = NC(Cc1ccccc1)C(=O)O; Cbz = O=C(OCc1ccccc1)*; Aib = CC(C)(N)C(=O)O
Tests used:
Assay in all cases: DTP human tumour cell line panel, 48 h
[1] = test system: HCC 2998
[2] = test system: RXF 393
[3] = test system: HOP-62
[4] = test system: SF-268
[5] = test system: DU-145
[6] = test system: MDA-N
[7] = test system: UACC-257
[8] = test system: 786-0
[9] = test system: MCF7
[10] = test system: SF-295
[11] = test system: NCI/ADR-RES
[12] = test system: NCI-H522
[13] = test system: HCT-15
[14] = test system: SNB-19
[15] = test system: K562
[16] = test system: RPMI-8226
[17] = test system: Hs-578T
[18] = test system: OVCAR-8
[19] = test system: TK-10

SMILES | GI50 [1] | GI50 [2] | GI50 [3] | GI50 [4] | GI50 [5] | GI50 [6] | GI50 [7] | GI50 [8] | GI50 [9] | GI50 [10] | GI50 [11] | GI50 [12] | GI50 [13] | GI50 [14] | GI50 [15] | GI50 [16] | GI50 [17] | GI50 [18] | GI50 [19]
CCCCCCCCCCCCCCCC(=O)OCC(O)C1OC(=O)C(O)=C1O (stereo unspecified) | > 100 µM (inactive) | 36.7 µM (inactive) | 31.4 µM (inactive) | 26.4 µM (inactive) | > 100 µM (inactive) | 30.8 µM (inactive) | > 100 µM (inactive) | 19.6 µM (inactive) | < 0.01 µM (active) | 20 µM (inactive) | 29.3 µM (inactive) | 34.4 µM (inactive) | 32.5 µM | 30.1 µM (inactive) | 27.8 µM (inactive) |  |  |  | 
CCOC(=O)c1c2c(n(-c3ccc(OC)cc3)c1C)C(=O)C(=O)c1ccccc1-2 | 1.73 µM (inactive) | 1.84 µM (inactive) | 1.78 µM (inactive) | 1.64 µM (inactive) | 1.52 µM (inactive) |  | 0.491 µM (active) | 1.87 µM (inactive) | 0.693 µM (active) | 1.61 µM (inactive) | 0.869 µM (active) | 2.71 µM (inactive) | 3.65 µM | 1.36 µM (inactive) | 0.488 µM (active) | 0.647 µM (active) | 2.18 µM (inactive) | 0.687 µM (active) | 1.72 µM (inactive)
O=C(O)c1ccc(C2SCc3nc4ccccc4n32)cc1 (stereo unspecified) | > 100 µM (inactive) | > 100 µM (inactive) | > 100 µM (inactive) | > 100 µM (inactive) | > 100 µM (inactive) | > 100 µM (inactive) | > 100 µM (inactive) | > 100 µM (inactive) | > 100 µM (inactive) | > 100 µM (inactive) |  | > 100 µM (inactive) | > 100 µM | > 100 µM (inactive) | > 100 µM (inactive) | > 100 µM (inactive) | > 100 µM (inactive) | > 100 µM (inactive) | > 100 µM (inactive)
Cc1cc(S(=O)(=O)O)c(NC(=O)c2oc3cc(O)ccc3c(=O)c2C)cc1Cl | > 100 µM (inactive) | > 100 µM (inactive) | > 100 µM (inactive) | > 100 µM (inactive) |  | > 100 µM (inactive) | > 100 µM (inactive) | > 100 µM (inactive) | > 100 µM (inactive) | > 100 µM (inactive) | > 100 µM (inactive) | > 100 µM (inactive) | > 100 µM | > 100 µM (inactive) | > 100 µM (inactive) | > 100 µM (inactive) | > 100 µM (inactive) | > 100 µM (inactive) | > 100 µM (inactive)
Nc1ncnc2c1ncn2C1OC(CSC(F)F)C(O)C1O (stereo unspecified) | > 100 µM (inactive) |  | > 100 µM (inactive) | > 100 µM (inactive) |  |  | > 100 µM (inactive) | > 100 µM (inactive) |  | > 100 µM (inactive) |  | 86.3 µM (inactive) | > 100 µM |  | > 100 µM (inactive) | > 100 µM (inactive) |  | > 100 µM (inactive) | > 100 µM (inactive)
CC(C)(C)/C(O)=C\c1nc2cc(F)c(F)cc2[nH]c1=O | > 100 µM (inactive) | > 100 µM (inactive) | > 100 µM (inactive) | > 100 µM (inactive) | 25.7 µM (inactive) |  | > 100 µM (inactive) | > 100 µM (inactive) | > 100 µM (inactive) | > 100 µM (inactive) | > 100 µM (inactive) |  | > 100 µM | > 100 µM (inactive) | > 100 µM (inactive) |  | > 100 µM (inactive) | > 100 µM (inactive) | > 100 µM (inactive)
O=C(O)C12CCC(CC1=O)C2 (stereo unspecified) |  |  | > 100 µM (inactive) | > 100 µM (inactive) |  |  | > 100 µM (inactive) | > 100 µM (inactive) | > 100 µM (inactive) | > 100 µM (inactive) | > 100 µM (inactive) | > 100 µM (inactive) | > 100 µM | > 100 µM (inactive) | > 100 µM (inactive) | > 100 µM (inactive) | > 100 µM (inactive) | > 100 µM (inactive) | > 100 µM (inactive)
CC(=O)c1ccc2c(c1)N(CCCN1CCN(CCO)CC1)c1ccccc1C2 |  | 15.4 µM (inactive) | 15.3 µM (inactive) | 17.8 µM (inactive) | 14.3 µM (inactive) | 13 µM (inactive) | 5.78 µM (inactive) | 16.9 µM (inactive) |  | 17.1 µM (inactive) | 13.9 µM (inactive) | 16.3 µM (inactive) | 14.4 µM | 18.9 µM (inactive) | 13.5 µM (inactive) | 12.9 µM (inactive) | 14.8 µM (inactive) | 16.7 µM (inactive) | 14.7 µM (inactive)
CC1CC(N2CCOCC2)=Nc2ccccc2N1C (stereo unspecified) |  | > 100 µM (inactive) | > 100 µM (inactive) | > 100 µM (inactive) | > 100 µM (inactive) | > 100 µM (inactive) | > 100 µM (inactive) | > 100 µM (inactive) |  | > 100 µM (inactive) | > 100 µM (inactive) | 98.9 µM (inactive) | > 100 µM | > 100 µM (inactive) | > 100 µM (inactive) | > 100 µM (inactive) | > 100 µM (inactive) | > 100 µM (inactive) | > 100 µM (inactive)
COC(=O)c1ccccc1/C=C1\Cc2cc(C)cc(C)c2C1=O | > 100 µM (inactive) | > 100 µM (inactive) | 37.2 µM (inactive) | > 100 µM (inactive) | > 100 µM (inactive) | > 100 µM (inactive) | > 100 µM (inactive) | 57.4 µM (inactive) | > 100 µM (inactive) | > 100 µM (inactive) |  | 5.46 µM (inactive) | > 100 µM | 72.4 µM (inactive) | > 100 µM (inactive) | > 100 µM (inactive) | > 100 µM (inactive) | > 100 µM (inactive) | > 100 µM (inactive)
N#CC(C#N)=c1c2ccccc2c(=C(C#N)C#N)c2ccccc12 |  |  | 19.4 µM (inactive) | 22.9 µM (inactive) |  | 18.7 µM (inactive) | 23.1 µM (inactive) | 14.9 µM (inactive) | 5.61 µM (inactive) |  | 25.6 µM (inactive) |  | 43.3 µM | 14.6 µM (inactive) | 19.9 µM (inactive) | 23.6 µM (inactive) | 20.8 µM (inactive) | 20.1 µM (inactive) | 
OCCCSc1ccccc1SCCCO | > 100 µM (inactive) |  | > 100 µM (inactive) | > 100 µM (inactive) | > 100 µM (inactive) | > 100 µM (inactive) | > 100 µM (inactive) | > 100 µM (inactive) | > 100 µM (inactive) | > 100 µM (inactive) | > 100 µM (inactive) | > 100 µM (inactive) | > 100 µM | > 100 µM (inactive) | > 100 µM (inactive) |  |  | > 100 µM (inactive) | > 100 µM (inactive)
O=C(c1cc(Cl)ccc1Cl)N1CCN(c2ccc(Cl)c(Cl)c2)CC1 | 26.7 µM (inactive) | 15.4 µM (inactive) | 67.5 µM (inactive) | 47.2 µM (inactive) | 61.2 µM (inactive) | 38.1 µM (inactive) | 29.9 µM (inactive) | 19.7 µM (inactive) | 8.67 µM (inactive) | 45.4 µM (inactive) |  | 20.7 µM (inactive) | 13.2 µM | > 10 µM (inactive) | 18.1 µM (inactive) | 74.6 µM (inactive) | 45.9 µM (inactive) | 12.5 µM (inactive) | 31.9 µM (inactive)
CC(C)(NC(=O)OCc1ccccc1)C(=O)NC(Cc1ccccc1)C(=O)O (stereo unspecified) (Cbz-[Aib]-[ξF]-OH) |  |  | > 100 µM (inactive) |  | > 100 µM (inactive) | > 100 µM (inactive) | > 100 µM (inactive) | > 100 µM (inactive) | > 100 µM (inactive) | > 100 µM (inactive) | > 100 µM (inactive) | > 100 µM (inactive) | > 100 µM | > 100 µM (inactive) | > 100 µM (inactive) | > 100 µM (inactive) | > 100 µM (inactive) | > 100 µM (inactive) | 
CCCCCCCC(=O)N[C@H](C(=O)N[C@H](C(=O)N(C)[C@H](C(=O)N1CCC[C@H]1C(=O)N(C)[C@H](C)C(=O)NCc1ccc(OC)cc1OC)C(C)C)C(C)C)C(C)C (Octanoyl-VV[NMeV]P[dNMeA]-X28) | 13.4 µM (inactive) | 8.57 µM (inactive) | 20.4 µM (inactive) | 15.2 µM (inactive) | 25.3 µM (inactive) |  | 5.21 µM (inactive) | 23.2 µM (inactive) | 7.53 µM (inactive) | 7.96 µM (inactive) | 42.1 µM (inactive) | 7.21 µM (inactive) | 21.5 µM | 12.7 µM (inactive) | 5.62 µM (inactive) | 3.02 µM (inactive) | 9.16 µM (inactive) | 5.58 µM (inactive) | 22.3 µM (inactive)
O=C1C(CO)=C[C@@H](O)[C@H]2O[C@@H]12 [EPOXYDON] |  |  | > 100 µM (inactive) | > 100 µM (inactive) | > 100 µM (inactive) | > 100 µM (inactive) |  | 39.8 µM (inactive) | 21.7 µM (inactive) | > 100 µM (inactive) | 75.5 µM (inactive) | > 100 µM (inactive) | > 100 µM |  | > 100 µM (inactive) | 33.3 µM (inactive) | > 100 µM (inactive) | > 100 µM (inactive) | 
C[C@]12CC[C@H]3[C@@H](CC[C@]4(O)C[C@@H](O)CC[C@]34C=O)[C@@]1(O)CC[C@@H]2C1=CC(=O)OC1 [STROPHANTHIDIN] | 4.27 µM (inactive) | 0.274 µM (active) | 0.159 µM (active) | 0.397 µM (active) | 0.284 µM (active) | 0.372 µM (active) | 0.766 µM (active) | 0.321 µM (active) |  | 0.457 µM (active) | 0.403 µM (active) | 0.0942 µM (active) | 0.413 µM | 1.58 µM (inactive) | 0.605 µM (active) | 0.506 µM (active) | 0.682 µM (active) | 0.498 µM (active) | 0.465 µM (active)

From ChEMBL document CHEMBL1201862, “PubChem BioAssay data set” (2004)
